Earlier results on one substance are cited in paper PMC8537947, “Improved Radiolytic Stability of a ^68Ga-labelled Collagelin Analogue for the Imaging of Fibrosis” (Pharmaceuticals, 2021).

A word on the Kd: it is the constant that tells how readily two partners part at equilibrium.

Data set [1] deals with frozen sections of dog heart affected by fibrosis. The following applies: cited from earlier work. The source says: The presence of excessive deposition of collagen was confirmed previously performing a Sirius Red histological assay on the adjacent tissue sections. The uptake of [^68Ga]Ga-NO2A-[Nle^13]-Col in the fibrotic tissue linearly correlated (R^2 = 0.84, Figure 2C) with the scoring of fibrosis, indicating a target density ranging between ...

In another data set the target is collagen I. The following applies: initial cyclic peptide analogues, earlier work of the authors; cited from earlier work. From the text:
One of the targets for radioactive imaging agents is type I collagen which is the most abundant extracellular matrix protein [1, 2, 3, 4, 5, 6]. Collagelin, a cyclic peptide identified from the bacterial peptide library, presumably binds selectively to the triple helix structure of collagen. The aim of this study was to develop a PET tracer for the specific imaging of early active fibrosis via binding to monomer collagen. The uptake in bone, skin and other tissues rich in collagen cross-linked fibrils, and in diseased sites with established, mature collagen was expected to be low, ...

Turning to “c[CPGRVXHGLHLGDDEGPC] (disulfide) [[^68Ga]Ga-NO2A-Col]”, the target density in data set [1] is given as 2.0 fmol/mm^3. On collagen I, the Kd was 2.3 ± 0.8 µM.
